From patent publication US8772348B2, “Materials and methods for pest control” (priority 2009, dated 2014)
Where two headings read alike, the source gives them in different places.

Experiments:
[1] = tested on: Field-collected Musca domestica
Protocol: Briefly, one Musca domestica strain is collected from the University of Florida dairy unit in Alachua County, Florida, U.S.A. (“the Alachua strain”). The other Musca domestica strain is collected from a dairy farm in Gilchrist County, Florida, U.S.A. (“the Gilchrist strain”). Both strains are colonized adults, and are subsequently reared at 27° C. in the laboratory of the Entomology and Nematology Department, University of Florida.
The positive control is exposed to serial dilutions of permethrin. The negative control is not exposed to any chemical compound. 1 mL of insecticide was dissolved in acetone (concentrations between 0.5 and 20 mg mL^−1) in a 60 mL glass jar having a 67.86 cm^2 inside surface area (Wheaton, Millville, N.J.). Jars were allowed to dry for 1 h prior to fly introduction. Flies were held in jars for 2, 4 and 24 h, and fly mortality rate was scored at that time. Sugar water (10%) was provided in all assays, unless stated otherwise. The mortality rate is measured after a 2-hour, 4-hour, and 24-hour period. Ataxic flies are considered dead. The mortality rate and the LC values are determined using the same procedures as is illustrated in Example 2.

[2] = tested on: Aedes aegypti; conditions: for % mortality on various days following treatment: formulation on military fabric at LC99-based concentration, 2 h exposure, mortality 24 h after initial exposure
Protocol: Briefly, after mosquitoes are exposed to formulations for 2 hours at a concentration of LC99, each set is transferred into a separate glass jar, and held for another 24 hours. The mortality rate is measured with new mosquitoes on post-treatment days 2, 3, 5, 8 and 14 (Day 1 starts at 24 hours after the transfer), and is determined using the same procedures as are illustrated in Example 2.
Concentrations were generated from technical-based LC99 values obtained from a 2 h exposure period on military fabric. Fabric was treated on day 0 and was held until exposure on post-treatment day. Mosquitoes were exposed for 2 h, and mortality rate was assessed 24 h after initial exposure. Control contained formulation ingredients without semiochemicals.

[3] = tested on: Stomoxys calcitrans
Protocol: Briefly, one Stomoxys calcitrans strain is collected from the University of Florida dairy unit in Alachua County, Florida, U.S.A. (“the Alachua strain”) and subsequently reared at 27° C. in the laboratory of the Entomology and Nematology Department, University of Florida.
Each strain is divided into four sets: three sets as the experimental treatments and the other set as the control. […] The control set is not exposed to any chemical compound. The mortality rate is measured after a 2-hour, 4-hour, and 24-hour period. Ataxic flies are considered dead. The mortality rate and the LC values are determined using the same procedures as is illustrated in Example 2.

[4] = tested on: Susceptible Musca domestica; experiment: Glass jar contact bioassay, susceptible (laboratory) house flies; conditions: for decline in toxicity after a 24-hour holding period subsequent to an initial 2-hour exposure: 2 h transferred vs 2 h constant
Protocol: Briefly, adult house flies, Musca domestica, are obtained from strains that have been reared in the laboratory of the Entomology and Nematology Department, University of Florida. […] The positive control is exposed to serial dilutions of permethrin. The negative control is not exposed to any chemical compound. The mortality rate is measured after 2-hour, 4-hour, and 24-hour periods. Ataxic flies are considered dead.
The ability of house flies to recover from insecticidal exposure is also investigated. After a 2-hour exposure, each set of flies is transferred into a separate glass jar. The mortality rate is measured at two time intervals: first, immediately at the transfer (2 hours after the initial exposure), and second, 22 hours after the transfer (24 hours after the initial exposure).
The mortality rate is analyzed using the PROBIT model. The data is adjusted based on the mortality rate in the control set using the Abbott's transformation, and the percent mortality is further analyzed based on ANOVA measurement. The experiment is repeated at least three times. The data is discarded if the mortality rate in the control set exceeds 10%. The LC50 and LC90 values are further determined using the SAS (Cary, N.C., USA) statistical software. For each chemical compound, at least 1280 flies are examined.

[5] = tested on: honey bees, Apis mellifera; experiment: Olfactory response assay in MEDUSA olfactometer, honey bee behaviors; assay type: in vivo; conditions: 0.25 mg semiochemical on perfumery strips; F7.72=0.705, p=0.67; data not shown
[6] = tested on: Aedes aegypti; conditions: for LC50: On camouflage military fabric
Protocol: The mortality rate is measured after a 2-hour, 4-hour and 24-hour exposure period. Ataxic mosquitoes are considered dead.
The ability of Ae. aegypti to recover from insecticidal exposure is also investigated. After a 2-hour exposure, each set of Ae. aegypti is transferred into a separate jar. The mortality rate is measured at two time intervals: first, immediately at the transfer (2 hours after the initial exposure), and second, 22 hours after the transfer (24 hours after the initial exposure).
The mortality rate and the LC values are determined using the same procedures as is illustrated in Example 2.

[7] = tested on: Musca domestica; conditions: formulation on plywood panels, 3.33 mg cm^−2 (footnote 1.67), 2 h exposure, mortality 24 h after
Protocol: Briefly, after Musca domestica is exposed to formulations at concentration of 3.33 mg cm^−2 for 2 hours, each set is transferred into a separate glass jar, and held for another 24 hours.
Plywood panels (225 cm^2) were treated with chemicals at a rate of 1.67 mg cm^−2. Panels were treated on day 0 and was held until exposure on post-treatment day. Mosquitoes were exposed to chemicals for 2 h, and mortality rate was assessed 24 h after initial exposure. Control contained formulation ingredients without semiochemicals.

[8] = Alachua strain, 2 h constant exposure
[9] = Alachua strain, 4 h constant exposure
[10] = Alachua strain, 24 h constant exposure
[11] = Gilchrist strain, 2 h constant exposure
[12] = Gilchrist strain, 4 h constant exposure
[13] = Gilchrist strain, 24 h constant exposure
[14] = 2 h constant exposure, glass jar
[15] = 2 h exposure, transferred to clean jars, mortality 24 h after initial exposure
[16] = 4 h constant exposure, glass jar

In the case of `C/C=C/C(=O)C1=C(C)CCCC1(C)C` [Beta damascone, beta damascone], the LC90 [1, 8] is reported as 136.39 μg cm^−2, the LC90 [1, 9] is reported as 124.69 μg cm^−2 and the LC90 [1, 10] is reported as 47.00 μg cm^−2. It also gave an LC90 [1, 11] of 126.00 μg cm^−2, an LC90 [1, 12] of 70.59 μg cm^−2 and an LC90 [1, 13] of 56.21 μg cm^−2. For the same compound, the mortality rate ([2]; in vivo) was “above 90%”, the LC90 ([3]; 2 h constant exposure) was 34.57 μg cm^−2 and the LC90 ([3]; 4 h constant exposure) was 29.68 μg cm^−2. The LC90 ([3]; 24 h constant exposure) was 20.33 μg cm^−2, the LC90 [4, 14] was 78.46 μg cm^−2 and the LC90 [4, 15] was 74.63 μg cm^−2. The “decline in toxicity after a 24-hour holding period subsequent to an initial 2-hour exposure” value [4] was “no decline in toxicity”, the LC90 [4, 16] was 53.59 μg cm^−2 and the mortality rate ([4]; in vivo) was roughly 100%. For the same compound, the “attraction or repellence of honey bees (contact seconds per hour)” value [5] was “do not attract or repel honey bees” and the mortality rate ([6]; in vivo) was roughly 100%.

`CC1(C)CCCC2=C1CC(C=O)CC2` (stereo not drawn) [Cyclemone A, 2-naphthaldehyde, 1,2,3,4,5,6,7,8-octahydro-8,8-dimethyl] showed an LC50 [1, 8] of 54.46 μg cm^−2, an LC90 [1, 8] of 74.41 μg cm^−2 and an LC50 [1, 9] of 52.60 μg cm^−2. It also gave an LC90 [1, 9] of 69.96 μg cm^−2, an LC50 [1, 10] of 32.29 μg cm^−2 and an LC90 [1, 10] of 51.09 μg cm^−2. For the same compound, the LC50 [1, 11] was 54.11 μg cm^−2, the LC90 [1, 11] was 72.60 μg cm^−2 and the LC50 [1, 12] was 46.52 μg cm^−2. The LC90 [1, 12] was 79.28 μg cm^−2, the LC50 [1, 13] was 32.32 μg cm^−2 and the LC90 [1, 13] was 51.58 μg cm^−2. For the same compound, the “% mortality on various days following treatment” value (“% mortality” for short) ([2]; day 1) was 100.00a %, the “% mortality” value ([2]; day 2) was 97.50a % and the “% mortality” value ([2]; day 3) was 92.50a %. For the same compound, the “% mortality” value ([2]; day 5) was 75.00a %, the “% mortality” value ([2]; day 8) was 25.50ab % and the “% mortality” value ([2]; day 14) was 17.50a %. For the same compound, the LC50 ([3]; 2 h constant exposure) was 19.52 μg cm^−2, the LC90 ([3]; 2 h constant exposure) was 31.31 μg cm^−2 and the LC50 ([3]; 4 h constant exposure) was 18.18 μg cm^−2. The LC90 ([3]; 4 h constant exposure) was 32.38 μg cm^−2, the LC50 ([3]; 24 h constant exposure) was 14.82 μg cm^−2 and the LC90 ([3]; 24 h constant exposure) was 27.10 μg cm^−2. For the same compound, the LC50 [4, 14] was 48.24 μg cm^−2, the LC90 [4, 14] was 69.90 μg cm^−2 and the LC50 [4, 15] was 47.29 μg cm^−2. For the same compound, the LC90 [4, 15] was 68.95 μg cm^−2, the “decline in toxicity after a 24-hour holding period subsequent to an initial 2-hour exposure” value [4] was “no decline in toxicity” and the LC50 [4, 16] was 44.52 μg cm^−2. For the same compound, the LC90 [4, 16] was 71.44 μg cm^−2, the mortality rate ([4]; after 24-hour exposure) was roughly 100% and the “attraction or repellence of honey bees (contact seconds per hour)” value [5] was “do not attract or repel honey bees”. The LC50 ([6]; 2 h constant exposure) was 26.03 μg cm^−2, the LC50 ([6]; 2 h exposure then transferred, mortality 24 h after initial exposure) was 41.13 μg cm^−2 and the LC50 ([6]; 4 h constant exposure) was 17.23 μg cm^−2. For the same compound, the mortality rate ([6]; camouflage military fabric, after a 24-hour exposure) was roughly 100%, the “% mortality” value ([7]; day 1) was 100.00a % and the “% mortality” value ([7]; day 2) was 49.25b %. The “% mortality” value ([7]; day 3) was 48.25b %, the “% mortality” value ([7]; day 5) was 27.75c % and the “% mortality” value ([7]; day 7) was 18.75b %. For the same compound, the “% mortality” value ([7]; day 14) was 9.00b %.
